Test results as given in paper PMC4286029 (Inflammation Research, 2014).

Experiments:
Met = target: T1, Met (Homo sapiens, UniProt P08581); experiment: KinaseProfiler selectivity: Met; format: biochemical
T1 construct: purchased Millipore Co. Ltd. (KinaseProfiler service)
Protocol: (§1) […]; The selectivity of JTE-052 for other kinases was assessed using KinaseProfiler™ (Millipore Co. Ltd.). […].

PKCγ = target: T2, PKCγ (Homo sapiens, UniProt P05129); experiment: KinaseProfiler selectivity: PKCγ; format: biochemical
T2 construct: purchased Millipore Co. Ltd. (KinaseProfiler service)
Protocol: as §1

SAPK2b = target: T3, SAPK2b (Homo sapiens, UniProt Q15759); experiment: KinaseProfiler selectivity: SAPK2b; format: biochemical
T3 construct: purchased Millipore Co. Ltd. (KinaseProfiler service)
T3 sequence (Q15759 whole entry, species assumed): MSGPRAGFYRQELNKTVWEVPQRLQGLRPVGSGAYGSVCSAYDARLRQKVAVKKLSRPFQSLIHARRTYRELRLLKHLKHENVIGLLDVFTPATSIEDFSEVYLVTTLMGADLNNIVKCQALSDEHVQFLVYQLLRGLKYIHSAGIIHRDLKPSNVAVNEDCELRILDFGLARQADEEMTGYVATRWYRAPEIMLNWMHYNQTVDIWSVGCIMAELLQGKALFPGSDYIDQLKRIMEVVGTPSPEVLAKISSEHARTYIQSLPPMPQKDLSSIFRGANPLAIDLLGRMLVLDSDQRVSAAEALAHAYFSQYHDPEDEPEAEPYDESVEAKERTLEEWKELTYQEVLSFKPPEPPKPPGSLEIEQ
Protocol: as §1

JNK1α1 = target: T4, JNK1α1 (Homo sapiens, UniProt P45983); experiment: KinaseProfiler selectivity: JNK1α1; format: biochemical
T4 construct: purchased Millipore Co. Ltd. (KinaseProfiler service)
Protocol: as §1

cSRC = target: T5, cSRC (Homo sapiens, UniProt P12931); experiment: KinaseProfiler selectivity: cSRC; format: biochemical
T5 construct: purchased Millipore Co. Ltd. (KinaseProfiler service)
T5 sequence (P12931 whole entry, species assumed): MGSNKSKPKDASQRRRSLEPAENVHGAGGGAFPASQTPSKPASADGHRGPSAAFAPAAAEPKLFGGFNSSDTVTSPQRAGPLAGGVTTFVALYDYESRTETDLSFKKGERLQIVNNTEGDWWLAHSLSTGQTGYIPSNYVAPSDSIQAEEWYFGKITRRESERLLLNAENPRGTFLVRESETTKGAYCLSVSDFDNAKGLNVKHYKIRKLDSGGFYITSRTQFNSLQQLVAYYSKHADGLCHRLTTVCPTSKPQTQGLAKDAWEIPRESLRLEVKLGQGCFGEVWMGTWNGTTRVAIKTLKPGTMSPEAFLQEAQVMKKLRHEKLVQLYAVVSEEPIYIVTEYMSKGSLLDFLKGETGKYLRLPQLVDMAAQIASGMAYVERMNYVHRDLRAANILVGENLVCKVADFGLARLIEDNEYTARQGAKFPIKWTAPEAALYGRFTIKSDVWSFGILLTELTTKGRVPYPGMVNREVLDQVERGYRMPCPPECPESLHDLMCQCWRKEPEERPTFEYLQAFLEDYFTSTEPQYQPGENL
Protocol: as §1

Lck = target: T6, Lck (Homo sapiens, UniProt P06239); experiment: KinaseProfiler selectivity: Lck; format: biochemical
T6 construct: purchased Millipore Co. Ltd. (KinaseProfiler service)
T6 sequence (P06239 whole entry, species assumed): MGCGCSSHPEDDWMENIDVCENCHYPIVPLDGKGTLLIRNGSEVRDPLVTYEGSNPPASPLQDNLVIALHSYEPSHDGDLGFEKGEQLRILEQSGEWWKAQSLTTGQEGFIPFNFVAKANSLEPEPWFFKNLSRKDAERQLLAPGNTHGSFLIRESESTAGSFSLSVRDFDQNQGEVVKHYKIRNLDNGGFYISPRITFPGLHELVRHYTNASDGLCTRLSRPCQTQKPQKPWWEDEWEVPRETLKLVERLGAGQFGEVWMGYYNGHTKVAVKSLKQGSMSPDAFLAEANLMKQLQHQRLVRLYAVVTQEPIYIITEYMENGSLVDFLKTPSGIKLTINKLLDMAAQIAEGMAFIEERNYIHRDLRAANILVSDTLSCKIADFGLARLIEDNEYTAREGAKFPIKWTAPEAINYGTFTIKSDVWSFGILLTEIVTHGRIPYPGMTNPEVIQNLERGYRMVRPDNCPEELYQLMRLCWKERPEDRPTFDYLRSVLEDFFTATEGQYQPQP
Protocol: as §1

[1] = system: rat collagen-induced arthritis model; experiment: Collagen-induced arthritis in rats; format: in vivo, Lewis rats
Protocol: CIA was induced in rats as previously described with some modifications. Briefly, type II collagen (Collagen Research Center, Saitama, Japan) was dissolved in 0.01 M acetic acid at 2 mg/mL, and the solution was emulsified in an equal volume of Freund’s incomplete adjuvant (Difco Laboratories, Detroit, MI). Lewis rats were immunized with 1 mL of the emulsion (1 mg of type II collagen) via ten intradermal injections on the back under anesthesia. The rats were then challenged with 0.2 mL of the emulsion injected into the base of the tail on day 8 under anesthesia. The test drugs were given orally once daily from day 1 to day 21 (preventive administration) or from day 15 to day 28 (therapeutic administration). After arthritis induction, the hind paw volume was measured by a water displacement method using a plethysmometer (Muromachi Kikai Co. Ltd., Tokyo, Japan). On day 22 or day 29, the rats were euthanized, and their hind paws were excised and X-rayed or processed for histological evaluation. Radiographs of the right hindlimbs were taken using a microfocal cone-beam X-ray CT scanner (MCT-CB100MF; Hitachi Medical Corporation, Tokyo, Japan). The severity of bone destruction was scored on a 3-point scale ranging from 0 to 2 for the following five joints: second metatarsal—second intertarsal joint, third metatarsal—third intertarsal joint, talus—central intertarsal joint, calcaneus—fourth intertarsal joint, and astragalo—tibial joint. For histological analysis, the formalin-fixed left hindlimbs were sectioned and stained with hematoxylin and eosin. The histology of the tarsal joints was evaluated by assessing the following parameters defined in the preliminary examination: inflammatory cell infiltration, synovial cell hyperplasia, cartilage destruction, and bone destruction. The severity of each histological change was scored on a 5-point scale ranging from 0 to 4. (Score 0: normal; Score 1: minimal, solitary (and very small) lesion; Score 2: slight, focal (and small) lesion; Score 3: moderate, scattered lesion; and Score 4: severe, extensive lesion).
(§2) . The hind paw volume (a) and body weight (b) were measured periodically. Images of hematoxylin and eosin staining (c) and radiographs of hindlimbs (e) are shown. Histological change (d) and radiographical change (f) were scored. The results are expressed as mean ± SD. ^# p < 0.05, ^## p < 0.01, versus vehicle by the Steel test
as §2, with “SD. *p < 0.05, **p < 0.01, versus vehicle by Dunnett’s test.” for “SD.”

PKCα = target: T7, PKCα (Homo sapiens, UniProt P17252); experiment: KinaseProfiler selectivity: PKCα; format: biochemical
T7 construct: purchased Millipore Co. Ltd. (KinaseProfiler service)
Protocol: as §1

Plk1 = target: T8, Plk1 (Homo sapiens, UniProt P53350); experiment: KinaseProfiler selectivity: Plk1; format: biochemical
T8 construct: purchased Millipore Co. Ltd. (KinaseProfiler service)
T8 sequence (P53350 whole entry, species assumed): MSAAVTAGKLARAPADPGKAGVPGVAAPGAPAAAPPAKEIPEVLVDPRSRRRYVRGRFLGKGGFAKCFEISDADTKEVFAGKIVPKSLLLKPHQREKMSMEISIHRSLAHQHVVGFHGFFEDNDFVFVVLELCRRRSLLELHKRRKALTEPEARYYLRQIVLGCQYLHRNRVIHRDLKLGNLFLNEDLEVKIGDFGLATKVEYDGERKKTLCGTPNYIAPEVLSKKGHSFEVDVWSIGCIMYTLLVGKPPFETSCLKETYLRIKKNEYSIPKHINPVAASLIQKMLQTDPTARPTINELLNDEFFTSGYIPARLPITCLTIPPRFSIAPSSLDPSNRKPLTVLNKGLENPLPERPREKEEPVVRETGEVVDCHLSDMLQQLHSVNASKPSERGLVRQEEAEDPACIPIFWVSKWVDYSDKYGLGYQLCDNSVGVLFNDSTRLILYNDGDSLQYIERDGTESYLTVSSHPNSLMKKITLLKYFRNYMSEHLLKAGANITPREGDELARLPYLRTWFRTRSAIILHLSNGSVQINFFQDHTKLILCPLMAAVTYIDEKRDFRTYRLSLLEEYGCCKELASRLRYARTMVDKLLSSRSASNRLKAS
Protocol: as §1

SAPK2a = target: T9, SAPK2a (Homo sapiens, UniProt Q16539); experiment: KinaseProfiler selectivity: SAPK2a; format: biochemical
T9 construct: purchased Millipore Co. Ltd. (KinaseProfiler service)
Protocol: as §1

MEK1 = target: T10, MEK1 (Homo sapiens, UniProt Q02750); experiment: KinaseProfiler selectivity: MEK1; format: biochemical
T10 construct: purchased Millipore Co. Ltd. (KinaseProfiler service)
Protocol: as §1

CDK1/cyclinB = target: T11, CDK1/cyclinB (Homo sapiens, UniProt P06493); experiment: KinaseProfiler selectivity: CDK1/cyclinB; format: biochemical
T11 construct: purchased Millipore Co. Ltd. (KinaseProfiler service)
Protocol: as §1

JNK2α2 = target: T12, JNK2α2 (Homo sapiens, UniProt P45984); experiment: KinaseProfiler selectivity: JNK2α2; format: biochemical
T12 construct: purchased Millipore Co. Ltd. (KinaseProfiler service)
Protocol: as §1

SGK = target: T13, SGK (Homo sapiens, UniProt O00141); experiment: KinaseProfiler selectivity: SGK; format: biochemical
T13 construct: purchased Millipore Co. Ltd. (KinaseProfiler service)
T13 sequence (O00141 whole entry): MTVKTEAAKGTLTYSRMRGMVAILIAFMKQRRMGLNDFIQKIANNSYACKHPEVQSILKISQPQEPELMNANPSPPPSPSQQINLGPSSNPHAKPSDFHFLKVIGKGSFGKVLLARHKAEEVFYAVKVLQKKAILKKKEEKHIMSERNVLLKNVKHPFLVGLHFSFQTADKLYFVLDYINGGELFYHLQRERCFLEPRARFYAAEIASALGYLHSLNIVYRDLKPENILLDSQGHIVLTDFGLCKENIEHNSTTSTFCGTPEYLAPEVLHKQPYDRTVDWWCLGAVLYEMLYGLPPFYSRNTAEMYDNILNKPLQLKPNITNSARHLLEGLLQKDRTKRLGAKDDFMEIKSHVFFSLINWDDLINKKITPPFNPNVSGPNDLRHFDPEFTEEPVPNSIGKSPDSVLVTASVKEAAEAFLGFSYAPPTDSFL
Protocol: as §1

[2] = system: kinases in KinaseProfiler; experiment: KinaseProfiler panel as a whole (selectivity for other kinases); format: biochemical; conditions: concentration of 1,000 nM
Protocol: as §1

p70S6 K = target: T14, p70S6 K (Homo sapiens, UniProt P23443); experiment: KinaseProfiler selectivity: p70S6 K; format: biochemical
T14 construct: purchased Millipore Co. Ltd. (KinaseProfiler service)
Protocol: as §1

[3] = system: IL-2-induced IFN-γ production; experiment: IL-2-induced IFN-γ production in mice; format: in vivo, DBA/1J mice; conditions: Mus musculus, po
Protocol: DBA/1J mice were dosed once via oral gavage with compounds. At 1 or 6 h after compound administration, the mice were injected intraperitoneally with 2 μg of recombinant mouse IL-2 and 10 μg of biotinylated anti-mouse IFN-γ capture antibody. After 6 h, the mice were euthanized, and blood was collected. Serum IFN-γ was quantified using a Mouse IFN-γ In Vivo Capture Assay Set (BD Biosciences).
After 1 or 6 h, they were injected with IL-2 and anti-mouse IFN-γ capture antibody. At 6 h after the injection, blood samples were collected, and the serum IFN-γ levels were measured.

CHK1 = target: T15, CHK1 (Homo sapiens, UniProt O14757); experiment: KinaseProfiler selectivity: CHK1; format: biochemical
T15 construct: purchased Millipore Co. Ltd. (KinaseProfiler service)
Protocol: as §1

CSK = target: T16, CSK (Homo sapiens, UniProt P41240); experiment: KinaseProfiler selectivity: CSK; format: biochemical
T16 construct: purchased Millipore Co. Ltd. (KinaseProfiler service)
Protocol: as §1

GSK3β = target: T17, GSK3β (Homo sapiens, UniProt P49841); experiment: KinaseProfiler selectivity: GSK3β; format: biochemical
T17 construct: purchased Millipore Co. Ltd. (KinaseProfiler service)
T17 sequence (P49841 whole entry, species assumed): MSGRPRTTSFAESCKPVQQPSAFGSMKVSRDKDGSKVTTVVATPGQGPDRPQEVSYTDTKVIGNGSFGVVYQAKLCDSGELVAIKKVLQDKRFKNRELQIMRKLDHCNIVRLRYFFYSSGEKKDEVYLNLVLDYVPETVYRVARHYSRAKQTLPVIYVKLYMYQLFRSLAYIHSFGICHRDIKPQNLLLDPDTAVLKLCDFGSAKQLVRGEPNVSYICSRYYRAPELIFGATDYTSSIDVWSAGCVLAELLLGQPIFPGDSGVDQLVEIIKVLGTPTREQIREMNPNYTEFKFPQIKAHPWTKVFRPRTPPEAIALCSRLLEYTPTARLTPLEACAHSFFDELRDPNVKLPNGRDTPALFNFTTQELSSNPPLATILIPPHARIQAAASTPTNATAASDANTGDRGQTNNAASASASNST
Protocol: as §1

FGFR3 = target: T18, FGFR3 (Homo sapiens, UniProt P22607); experiment: KinaseProfiler selectivity: FGFR3; format: biochemical
T18 construct: purchased Millipore Co. Ltd. (KinaseProfiler service)
Protocol: as §1

SAPK3 = target: T19, SAPK3 (Homo sapiens, UniProt P53778); experiment: KinaseProfiler selectivity: SAPK3; format: biochemical
T19 construct: purchased Millipore Co. Ltd. (KinaseProfiler service)
Protocol: as §1

Fyn = target: T20, Fyn (Homo sapiens, UniProt P06241); experiment: KinaseProfiler selectivity: Fyn; format: biochemical
T20 construct: purchased Millipore Co. Ltd. (KinaseProfiler service)
Protocol: as §1

EGFR = target: T21, EGFR (Homo sapiens, UniProt P00533); experiment: KinaseProfiler selectivity: EGFR; format: biochemical
T21 construct: purchased Millipore Co. Ltd. (KinaseProfiler service)
Protocol: as §1

JNK3 = target: T22, JNK3 (Homo sapiens, UniProt P53779); experiment: KinaseProfiler selectivity: JNK3; format: biochemical
T22 construct: purchased Millipore Co. Ltd. (KinaseProfiler service)
Protocol: as §1

T1 sequence (P08581 25-1390): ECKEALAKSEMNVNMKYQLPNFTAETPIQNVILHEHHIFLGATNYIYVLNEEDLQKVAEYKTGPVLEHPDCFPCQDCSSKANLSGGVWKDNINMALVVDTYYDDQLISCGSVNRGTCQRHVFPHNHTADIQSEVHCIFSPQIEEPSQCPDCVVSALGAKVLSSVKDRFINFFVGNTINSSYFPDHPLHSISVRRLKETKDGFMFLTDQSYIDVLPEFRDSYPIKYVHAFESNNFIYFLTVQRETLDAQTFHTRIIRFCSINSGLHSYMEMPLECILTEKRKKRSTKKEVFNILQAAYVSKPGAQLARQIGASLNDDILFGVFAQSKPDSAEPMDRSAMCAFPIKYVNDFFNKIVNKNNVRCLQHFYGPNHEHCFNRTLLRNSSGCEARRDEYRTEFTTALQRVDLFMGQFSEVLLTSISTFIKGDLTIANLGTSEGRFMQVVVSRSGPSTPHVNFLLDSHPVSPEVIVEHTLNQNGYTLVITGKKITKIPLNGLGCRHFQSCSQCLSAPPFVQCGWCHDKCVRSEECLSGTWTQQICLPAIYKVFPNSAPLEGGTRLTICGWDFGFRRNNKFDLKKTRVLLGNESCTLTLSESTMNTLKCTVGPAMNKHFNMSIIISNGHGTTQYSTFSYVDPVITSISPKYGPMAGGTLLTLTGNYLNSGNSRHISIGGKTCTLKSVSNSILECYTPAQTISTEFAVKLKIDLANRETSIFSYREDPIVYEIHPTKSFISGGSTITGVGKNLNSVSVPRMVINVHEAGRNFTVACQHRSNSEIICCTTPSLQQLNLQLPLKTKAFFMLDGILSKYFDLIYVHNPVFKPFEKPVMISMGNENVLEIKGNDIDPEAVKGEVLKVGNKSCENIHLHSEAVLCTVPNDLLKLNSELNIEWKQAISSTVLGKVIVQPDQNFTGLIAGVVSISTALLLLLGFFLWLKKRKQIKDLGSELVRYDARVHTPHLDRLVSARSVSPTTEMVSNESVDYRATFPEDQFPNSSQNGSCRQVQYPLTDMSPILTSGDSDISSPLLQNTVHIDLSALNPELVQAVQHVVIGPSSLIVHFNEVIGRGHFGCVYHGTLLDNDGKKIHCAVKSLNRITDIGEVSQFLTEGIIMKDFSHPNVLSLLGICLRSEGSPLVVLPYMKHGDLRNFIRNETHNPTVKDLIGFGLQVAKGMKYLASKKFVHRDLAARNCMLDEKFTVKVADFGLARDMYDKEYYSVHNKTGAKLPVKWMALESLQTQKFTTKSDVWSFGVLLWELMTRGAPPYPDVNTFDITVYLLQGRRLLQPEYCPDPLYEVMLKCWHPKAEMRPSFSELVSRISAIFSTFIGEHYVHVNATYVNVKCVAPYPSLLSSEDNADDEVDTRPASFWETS

## C[C@H]1CN(C(=O)CC#N)[C@]12CCN(c1ncnc3[nH]ccc13)C2 [JTE-052]
Met
  IC50: > 1 µM
PKCγ
  IC50: > 1 µM
SAPK2b
  IC50: > 1 µM
JNK1α1
  IC50: > 1 µM
cSRC
  IC50: > 1 µM
Lck
  IC50: > 1 µM
[1]; oral once daily from day 1
  effect on bone and cartilage destruction (radiographic, histological), preventive administration: inhibited radiographic and histological changes of bone destruction and cartilage destruction
[1]; oral once daily from day 1, JTE-052 0.1, 1, 10 mg/kg, MTX 0.3 mg/kg
  effect on hind paw swelling and joint inflammation, preventive administration: prevented the development of hind paw swelling
PKCα
  IC50: > 1 µM
Plk1
  IC50: > 1 µM
SAPK2a
  IC50: > 1 µM
MEK1
  IC50: > 1 µM
CDK1/cyclinB
  IC50: > 1 µM
JNK2α2
  IC50: > 1 µM
SGK
  IC50: > 1 µM
[2]
  inhibition of other kinases in KinaseProfiler: did not inhibit any of the kinases even at the concentration of 1,000 nM, except for ROCK-II
p70S6 K
  IC50: > 1 µM
[3]; dosed 1 h prior to IL-2 injection
  ED50: 0.24 mg/kg
[3]; dosed 6 h prior to IL-2 injection
  ED50: 1.3 mg/kg
CHK1
  IC50: > 1 µM
CSK
  IC50: > 1 µM
GSK3β
  IC50: > 1 µM
FGFR3
  IC50: > 1 µM
SAPK3
  IC50: > 1 µM
Fyn
  IC50: > 1 µM
EGFR
  IC50: > 1 µM
JNK3
  IC50: > 1 µM
